Assay results reported in publication PMC10673308, “Unusual Oligomeric Laccase-like Oxidases from Ascomycete Curvularia geniculata VKM F-3561 Polymerizing Phenylpropanoids and Phenolic Compounds under Neutral Environmental Conditions” (Microorganisms, 2023).

Columns and labels:
[1] = test system: T1, oxidase I (laccase-like oxidase I of C. geniculata VKM F-3561); assay: spectrophotometric oxidation assay; type: biochemical, Curvularia geniculata; conditions: apparent, error < 10%
T1 construct: native, purified from culture liquid; glycosylated oligomer about 1035 kDa, subunit about 63 kDa deglycosylated
From the text: spectrophotometric oxidation assay on oxidase I (laccase-like oxidase I of C. geniculata VKM F-3561)

[2] = test system: T2, oxidase II (laccase-like oxidase II of C. geniculata VKM F-3561); assay: spectrophotometric oxidation assay; type: biochemical, Curvularia geniculata; conditions: apparent, error < 10%
T2 construct: native, purified from culture liquid; glycosylated oligomer about 870 kDa, subunit about 63 kDa deglycosylated
From the text: spectrophotometric oxidation assay on oxidase II (laccase-like oxidase II of C. geniculata VKM F-3561)

| SMILES | Km ([1]; 50 mM Tris-HCl buffer pH 7.2) | Km ([2]; 50 mM Tris-HCl buffer pH 7.2) | Km ([1]; 20 mM Na-acetate buffer pH 5.0) | Km ([2]; 20 mM Na-acetate buffer pH 5.0) |
| --- | --- | --- | --- | --- |
| COc1cccc(OC)c1O [2,6-dimethoxyphenol] | 26 µM | 108 µM | – | – |
| CCn1c(=NN=c2sc3cc(S(=O)(=O)O)ccc3n2CC)sc2cc(S(=O)(=O)O)ccc21 [ABTS, 2,2′-azino-bis(3-ethylbenzothiazoline 6-sulfonic acid)] | – | – | 280 µM | 152 µM |
| COc1cc(/C=C/CO)ccc1O [coniferyl alcohol] | 130 µM | 125 µM | – | – |
| COc1cc(/C=C/C(=O)O)ccc1O [ferulic acid] | 37.6 µM | 51 µM | – | – |
| COc1cc(C=NN=Cc2cc(OC)c(O)c(OC)c2)cc(OC)c1O [syringaldazine, 4-hydroxy-3,5-dimethoxybenzaldehyde azine] | 2.3 µM | 46 µM | – | – |
